Data reported in patent US20240306670A1, “BERBERINE ALKALOIDS IN THE PREVENTION AND/OR TREATMENT OF INTESTINAL DISEASE” (priority 2017, published 2024).

Assay: General safety in broilers reared to market weight by histology (Example 8)
Details: histology D42

With COc1ccc2cc3[n+](cc2c1OC)CCc1cc2c(cc1-3)OCO2 [IRP001 chloride, berberine chloride] the “gastrointestinal tract (GIT) histologic lesions” value was “within normal limits” and the liver histologic lesions was “within normal limits”.
